The text below walks through data of ChEMBL document CHEMBL1159295, “Sulfated Polyprenylhydroquinones from the Sponge Ircinia spinosula” (J Nat Prod, 1995).

Series [1] concerns Gambusia affinis. In words: Toxicity in Gambusia affinis. The series is classed as organism-based. The settings on record: in vivo.
Series [2] deals with Artemia salina. In words: Toxicity in Artemia salina. The series is classed as organism-based. The settings on record: in vivo.
Series [3] relates to Pseudomonas aeruginosa. In words: Antibacterial activity against Pseudomonas aeruginosa DSM 1117 at 100 ug/disk by diffusion test. It counts as functional, organism-based.
In series [4] the test system is Bacillus subtilis. In words: Antibacterial activity against Bacillus subtilis DSM 347 at 100 ug/disk by diffusion test. It counts as functional, organism-based.
Series [5] concerns Escherichia coli. In words: Antibacterial activity against Escherichia coli DSM 1103 at 100 ug/disk by diffusion test. The series is classed as functional, organism-based.
The test system of series [6] is Micrococcus luteus. In words: Antibacterial activity against Micrococcus luteus DSM 348 at 100 ug/disk by diffusion test. The series is classed as functional, organism-based.
The test system of series [7] is Candida albicans. In words: Antifungal activity against Candida albicans DSM 1665 at 100 ug/disk by diffusion test. It counts as functional, organism-based.

Each structure is given as a SMILES string. Calls of active or inactive are those of the source. No cut-off for these calls is given here. A value given as a limit tells only on which side of the number the result lay.

In the case of `CC(C)=CCC/C(C)=C/CC/C(C)=C/CC/C(C)=C/CC/C(C)=C/CC/C(C)=C/CC/C(C)=C/Cc1cc(O)ccc1O`, the LC50 in series [1] is given as > 100 ppm; in series [2] it was 0.91 ppm.

On to `CC(C)=CCC/C(C)=C/CC/C(C)=C/CC/C(C)=C/CC/C(C)=C/CC/C(C)=C/CCC1(C)C=Cc2cc(O)ccc2O1` (stereo not drawn), for which the results for the LC50 in series [1] and in series [2] were > 100 ppm and 1.15 ppm, respectively. Further, the outcome in series [3], in series [4], in series [5], in series [6] and in series [7] was inactive.

Regarding `CC(C)=CCC/C(C)=C/CC/C(C)=C/CC/C(=C/CC/C(C)=C/CC/C(C)=C/CC/C(C)=C/CC/C(C)=C/Cc1cc(OS(=O)(=O)[O-])ccc1O)CO.[Na+]`, the figures for the LC50 in series [1] and in series [2] were 19.6 ppm and 0.05 ppm, respectively. In addition, the result in series [3], in series [4], in series [5], in series [6] and in series [7] was inactive.

Turning to `CC(C)=CCC/C(C)=C/CC/C(C)=C/CC/C(=C/CC/C(C)=C/CC/C(C)=C/CC/C(C)=C/CCC1(C)C=Cc2cc(O)ccc2O1)CO` (stereo not drawn), the LC50 was > 100 ppm in series [1] and 32.3 ppm in series [2]. In addition, the result in series [3], in series [4], in series [5], in series [6] and in series [7] was inactive.

As for `CC(C)=CCC/C(C)=C/CC/C(C)=C/CC/C(C)=C/CC/C(C)=C/CC/C(C)=C/CC/C(C)=C/CC/C(C)=C/Cc1cc(OS(=O)(=O)[O-])ccc1O.[Na+]`, the LC50 in series [1] is recorded as 16.9 ppm; in series [2], 0.04 ppm. In addition, the result in series [3], in series [4], in series [5], in series [6] and in series [7] was inactive.

`CC(C)=CCC/C(C)=C/CC/C(C)=C/CC/C(=C/CC/C(C)=C/CC/C(C)=C/CC/C(C)=C/CC/C(C)=C/Cc1cc(O)ccc1O)CO`: the figures for the LC50 in series [1] and in series [2] were > 100 ppm and 0.35 ppm, respectively. Moreover, the result in series [3], in series [4], in series [5], in series [6] and in series [7] was inactive.

Turning to `CC(C)=CCC/C(C)=C/CC/C(C)=C/CC/C(C)=C/CC/C(C)=C/CC/C(C)=C/CC/C(C)=C/CC/C(C)=C/Cc1cc(O)ccc1O`, the LC50 in series [1] is > 100 ppm; in series [2], 0.98 ppm.

As for `CC(C)=CCC/C(C)=C/CC/C(C)=C/CC/C(C)=C/CC/C(C)=C/CC/C(C)=C/CC/C(C)=C/Cc1cc(OS(=O)(=O)[O-])ccc1O.[Na+]`, the values for the LC50 in series [1] and in series [2] were 15.6 ppm and 0.02 ppm, respectively. For the same compound, the result in series [3], in series [4], in series [5], in series [6] and in series [7] was inactive.

In the case of `CC(C)=CCC/C(C)=C/CC/C(C)=C/CC/C(C)=C/CC/C(C)=C/CC/C(C)=C/CC/C(C)=C/CCC1(C)C=Cc2cc(O)ccc2O1` (stereo not drawn), the LC50 in series [1] was > 100 ppm; in series [2] it was 1.45 ppm. Moreover, the outcome in series [3], in series [4], in series [5], in series [6] and in series [7] was inactive.
